# Source: ChEMBL document CHEMBL3885881, “DrugMatrix”
# Species: Rattus norvegicus
# Test: DrugMatrix - Regimen: Daily Repeat
# Assay type: toxicity, organism-based, Sprague-Dawley
# Set-up: regimen Daily Repeat, gender Male, age 6-8 weeks
# Settings: in vivo, po, route oral GAVAGE, vehicle .5 % CMC; for BASOPHIL / EOSINOPHIL / ERYTHROCYTE COUNT / HEMATOCRIT / HEMOGLOBIN / LEUKOCYTE COUNT / LYMPHOCYTE / MEAN CORPUSCULAR HEMOGLOBIN / MEAN CORPUSCULAR HEMOGLOBIN CONCENTRATION / MEAN CORPUSCULAR VOLUME / MONOCYTE / NEUTROPHIL / PLATELET COUNT: tissue Blood; for ALANINE AMINOTRANSFERASE / ALBUMIN / ALKALINE PHOSPHATASE / ASPARTATE AMINOTRANSFERASE / BLOOD UREA NITROGEN / CHLORIDE / CHOLESTEROL / CREATINE PHOSPHOKINASE / CREATININE / GLUCOSE / PHOSPHORUS / POTASSIUM / SODIUM / TOTAL BILIRUBIN / TOTAL PROTEIN: tissue Plasma
# [1] = 0.09 mg/kg, 120 h, dose level Low, time 5 day
# [2] = 0.9 mg/kg, 72 h, dose level High, time 3 day
# [3] = 0.9 mg/kg, 120 h, dose level High, time 5 day
structure (smiles),measurement,setting,value
CCN1C[C@]2(COC)[C@H](O)C[C@H](OC)[C@@]34[C@@H]5C[C@@]6(O)[C@H](OC(=O)c7ccccc7)[C@@H]5[C@@](OC(C)=O)([C@@H]([C@H](OC)[C@H]23)[C@@H]14)[C@@H](O)[C@@H]6OC [ACONITINE],BASOPHIL,[1],0.73%
same,EOSINOPHIL,[1],0.3%
same,ERYTHROCYTE COUNT,[1],7.49 x10E6/uL
same,HEMATOCRIT,[1],47.87%
same,HEMOGLOBIN,[1],14.97 G/DL
same,LEUKOCYTE COUNT,[1],9.72 x10E3/uL
same,LYMPHOCYTE,[1],82.5%
same,MEAN CORPUSCULAR HEMOGLOBIN,[1],20.07 pg
same,MEAN CORPUSCULAR HEMOGLOBIN CONCENTRATION,[1],31.37 G/DL
same,MEAN CORPUSCULAR VOLUME,[1],63.9 fL
same,MONOCYTE,[1],2%
same,NEUTROPHIL,[1],13.77%
same,PLATELET COUNT,[1],1482.33 x10E3/uL
same,ALANINE AMINOTRANSFERASE,[1],38.67 u/L
same,ALBUMIN,[1],3.83 G/DL
same,ALKALINE PHOSPHATASE,[1],409.67 u/L
same,ASPARTATE AMINOTRANSFERASE,[1],66.33 u/L
same,BLOOD UREA NITROGEN,[1],13.33 mg/dL
same,CHLORIDE,[1],107 MEQ/L
same,CHOLESTEROL,[1],62.67 mg/dL
same,CREATINE PHOSPHOKINASE,[1],135.67 u/L
same,CREATININE,[1],0.67 mg/dL
same,GLUCOSE,[1],154.33 mg/dL
same,PHOSPHORUS,[1],12.77 mg/dL
same,POTASSIUM,[1],7.43 MEQ/L
same,SODIUM,[1],151.33 MEQ/L
same,TOTAL BILIRUBIN,[1],0.5 mg/dL
same,TOTAL PROTEIN,[1],6.93 G/DL
same,BASOPHIL,[2],0.57%
same,EOSINOPHIL,[2],0.37%
same,ERYTHROCYTE COUNT,[2],6.91 x10E6/uL
same,HEMATOCRIT,[2],44.07%
same,HEMOGLOBIN,[2],13.83 G/DL
same,LEUKOCYTE COUNT,[2],11.28 x10E3/uL
same,LYMPHOCYTE,[2],85.87%
same,MEAN CORPUSCULAR HEMOGLOBIN,[2],20.03 pg
same,MEAN CORPUSCULAR HEMOGLOBIN CONCENTRATION,[2],31.4 G/DL
same,MEAN CORPUSCULAR VOLUME,[2],63.73 fL
same,MONOCYTE,[2],1.8%
same,NEUTROPHIL,[2],10.03%
same,PLATELET COUNT,[2],1654.67 x10E3/uL
same,ALANINE AMINOTRANSFERASE,[2],36 u/L
same,ALBUMIN,[2],3.73 G/DL
same,ALKALINE PHOSPHATASE,[2],364.67 u/L
same,ASPARTATE AMINOTRANSFERASE,[2],63.33 u/L
same,BLOOD UREA NITROGEN,[2],14 mg/dL
same,CHLORIDE,[2],97.33 MEQ/L
same,CHOLESTEROL,[2],62.67 mg/dL
same,CREATINE PHOSPHOKINASE,[2],126.33 u/L
same,CREATININE,[2],0.5 mg/dL
same,GLUCOSE,[2],187 mg/dL
same,PHOSPHORUS,[2],11.57 mg/dL
same,POTASSIUM,[2],6.97 MEQ/L
same,SODIUM,[2],138.67 MEQ/L
same,TOTAL BILIRUBIN,[2],0.4 mg/dL
same,TOTAL PROTEIN,[2],6.6 G/DL
same,BASOPHIL,[3],0.47%
same,EOSINOPHIL,[3],0.3%
same,ERYTHROCYTE COUNT,[3],7.11 x10E6/uL
same,HEMATOCRIT,[3],44.93%
same,HEMOGLOBIN,[3],13.73 G/DL
same,LEUKOCYTE COUNT,[3],9.26 x10E3/uL
same,LYMPHOCYTE,[3],88.1%
same,MEAN CORPUSCULAR HEMOGLOBIN,[3],19.37 pg
same,MEAN CORPUSCULAR HEMOGLOBIN CONCENTRATION,[3],30.6 G/DL
same,MEAN CORPUSCULAR VOLUME,[3],63.23 fL
same,MONOCYTE,[3],1.83%
same,NEUTROPHIL,[3],9.33%
same,PLATELET COUNT,[3],1288 x10E3/uL
same,ALANINE AMINOTRANSFERASE,[3],40.33 u/L
same,ALBUMIN,[3],3.67 G/DL
same,ALKALINE PHOSPHATASE,[3],314 u/L
same,ASPARTATE AMINOTRANSFERASE,[3],66 u/L
same,BLOOD UREA NITROGEN,[3],12.33 mg/dL
same,CHLORIDE,[3],108.33 MEQ/L
same,CHOLESTEROL,[3],66 mg/dL
same,CREATINE PHOSPHOKINASE,[3],136 u/L
same,CREATININE,[3],0.63 mg/dL
same,GLUCOSE,[3],161 mg/dL
same,PHOSPHORUS,[3],12.37 mg/dL
same,POTASSIUM,[3],7.3 MEQ/L
same,SODIUM,[3],151.67 MEQ/L
same,TOTAL BILIRUBIN,[3],0.33 mg/dL
same,TOTAL PROTEIN,[3],6.57 G/DL
